Experimental data: publication PMC7806726, “Activated neutrophil fluorescent imaging technique for human lungs” (Scientific Reports, 2021)
Numbered stars: 1 amine (or outer) side, 2 acyl side, 3 side chain; on linkers, the order of the positions; unused ones are H or OH. Bridge positions count the residues as written; N and C are the ends. Square brackets hold non-standard residues; d marks the D form. Peptide text beside a SMILES is read from it. I, II: the chains in the order shown. * marks the point of attachment. 5FAM = O=C1OC2(c3ccc(O)cc3Oc3cc(O)ccc32)c2ccc(C(=O)*)cc21; X1 = NC(=O)NC(COCCCN[*:1])(COCCCN[*:2])COCCCN[*:3]; Nle = CCCC[C@H](N)C(=O)O; AEEA = NCCOCCOCC(=O)O

Columns and labels:
[1] = test system: freshly isolated neutrophils; test: Flow cytometry of intracellular NAP fluorescence in isolated neutrophils; format: cell-based, human; settings: A23187 10 µM activated neutrophils, NAP 5 µM; Dynasore Hydrate 30 µM, DPI 10 µM, Sivelestat 100 µM; 30 min 37 °C
Method: Neutrophils were suspended in PBS with divalent cations at a concentration of 10 × 10^6/mL. […] Incubation took place at 37 °C for 30 min and samples were shaken at 500 rpm using an orbital plate shaker (Thermomixer comfort, Eppendorf, Hamburg, Germany). Suspensions were then incubated with anti-human CD11b-APC (1:100 dilution, Clone ICRF44, Biolegend, CA, USA) at 22 °C for 30 min at 500 rpm before the application of NAP to a final concentration of 5 µM for 15 min at 22 °C and 500 rpm. Cells were washed in PBS without divalent cations at 350 g for 5 min at room temperature using a microtube centrifuge (Biofuge fresco, Heraeus, Hanau, Germany) and reconstituted in 175 µL PBS without divalent cations. Samples were loaded onto a 96 round-bottomed well plate (Corning).
Flow cytometry was performed using an Accuri C6 flow cytometer and BD CSampler software (both Becton–Dickinson, NJ, USA). Compensation beads and single stain controls were used where appropriate. […] The cytometer was thresholded on forward scatter to eliminate debris. The cytometer was aligned monthly using Calibrite 3, APC and 8 peak beads (Becton–Dickinson) to calibrate scatter and fluorescence parameters.
Data analyses were performed using Flowjo v10.0.8r1 (Treestar, Ashland, OR, USA). Samples were repeated in duplicate for each individual donor and pooled to yield a point estimate for each condition and each donor. The point estimates from different donors were pooled to yield an overall mean point estimate for each condition ± SE.

rats = test: GLP toxicology study, delivery via the trachea; format: in vivo, rat
Method: NAP was delivered via the trachea to rats in a Contract Research Organization Good Laboratory Practice (GLP) toxicology study at approximately 700 times the human dose. NAP (100 µg) was instilled and rats underwent necroscopy at 3 and 15 days after delivery. […] The release specifications for NAP drug substance and drug product are shown in Supplementary tables S3 and S4.
All experiments using human volunteers were performed following approval from the appropriate regional ethics committee (REC) and informed consent was obtained from each participant or their personal legal representative for adults with incapacity (in accordance with the Adults with Incapacity (Scotland) Act 2000). BALF for alveolar macrophages: (East of Scotland Research Ethics Committee 1 no: 07/S1102/20), blood for assessment of leucocyte populations (Lothian Research Ethics Committee no: 08/S1103/38), and first-in-human assessment of probe performance and safety (Scotland A Research Ethics Committee no: 12/SS/0004, EudraCT 2011-006169-17, NCT01532024). All methods were performed in accordance with the relevant guidelines and regulations. Animal toxicology was conducted in compliance with UK Good Laboratory Practice Regulations by a third party contract research organization (Covance Laboratories Ltd, Harrogate, UK) under Covance UK Home Office License for toxicology. […]

[2] = test system: freshly isolated human peripheral neutrophils; test: Neutrophil toxicity (Annexin V / propidium iodide flow cytometry); format: cell-based; settings: 5 µM NAP, 18 h, 37 °C, IMDM with 10% autologous serum, Annexin V/PI
Method: (§1) Membrane toxicity of NAP was assessed using erythrocyte haemolysis. Isolated erythrocytes remaining after leukocyte separation were diluted 1:5 with PBS without cations and 50 µL of this red cell suspension was added to wells of a 96-well plate. Working concentration of NAP (5 µM), or working concentration × 2, was added to the relevant well. Positive control wells contained Triton X-100 (0.4%, Sigma-Aldrich) and negative control wells contained PBS w/o only. The 96-well plate was incubated for one hour at 37 °C in a humidified environment. Following incubation, 180 µL of PBS without cations was added to each well and the plate was centrifuged at 2500 rpm for 10 min. 100 µL of supernatant from each well was removed and aliquoted into clean wells. Absorbance at 350 nm was recorded using a plate reader. Triplicate repeats were pooled to yield an overall mean point estimate ± SEM of haemolysis that was expressed as a percentage of the positive control. For neutrophil toxicity freshly isolated human peripheral neutrophils were resuspended at 10 × 10^6 cells/mL in IMDM with 10% autologous serum and cultured for 18hrs ± 5 µM NAP at 37 degrees in a 5% CO2 incubator. […] Duplicate repeats were pooled to yield an overall mean point estimate ± SEM of apoptosis and necrosis that was expressed as a percentage of total cells.

[3] = target: T1, human neutrophil elastase (HNE) (Homo sapiens, UniProt P08246); test: Plate reader assessment of probe de-quenching with purified HNE; format: biochemical
T1 construct: purchased Elastin Products Company, MO, USA
T1 sequence (P08246 30-267): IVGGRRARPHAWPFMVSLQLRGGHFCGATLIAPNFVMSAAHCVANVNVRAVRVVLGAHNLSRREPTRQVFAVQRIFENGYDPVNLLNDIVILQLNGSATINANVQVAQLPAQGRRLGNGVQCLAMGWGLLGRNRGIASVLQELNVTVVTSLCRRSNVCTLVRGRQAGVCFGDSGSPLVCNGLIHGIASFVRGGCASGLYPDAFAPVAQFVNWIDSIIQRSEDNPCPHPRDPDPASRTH
Method: To generate an emission spectrum, NAP was excited at 430 nm to ensure the spectrum could be visualized to the x-axis. Excitation/absorbance spectra were obtained with NAP diluted to 5 µM in PBS or freshly prepared pH buffer. Purified HNE (Elastin Products Company, MO, USA) and purified proteinase 3 (Sigma-Aldrich, Poole, UK) were made up according to the manufacturer’s instructions to yield appropriate stock concentrations. Stock preparations of purified enzyme were prepared according to manufacturers’ instructions and subsequently diluted appropriately with Phosphate Buffered Saline (PBS, Thermoscientific, MA, USA) and NAP to achieve a final volume of 200 µL per condition and a final NAP concentration of 5 µM. Solutions were prepared directly into 96 well plates (Corning, NY, USA) on ice, with or without the human neutrophil elastase inhibitor Sivelestat (ONO-5046, 100 µM, Tocris, Bristol, UK). Plates were subsequently incubated at 37 °C with fluorescent parameters recorded every minute for 1 h (Fig. 1C, excitation 488 nm, emission 525 nm). All fluorescence parameters were recorded using a microplate reader (Synergy H1 hybrid reader, BioTek, Potton, UK,).

[4] = GLP AMES mutagenicity test, microsuspension-modified method
erythrocytes = test: Erythrocyte haemolysis (membrane toxicity); format: cell-based, human; settings: NAP 5 µM or working concentration × 2, 1 h 37 °C, absorbance 350 nm, vs Triton X-100 0.4%
Method: as §1

[5] = test system: isolated healthy human neutrophils; test: Confocal time course of primed neutrophils activated with fMLF; format: cell-based; settings: co-incubation with Sivelestat 100 µM; Cytochalasin B primed, fMLF 500 nM, NAP 5 µM
Method: Where stated commercial stains were used in accordance with the manufacturer’s instructions or applied to a suspension of the relevant cells in eppendorfs at a concentration of 1:1000 from delivered stock for 10 min at 37 °C and 500 rpm using an orbital plate shaker before undergoing one wash in PBS without divalent cations as described above. 8 well Lab-Tek II confocal chambers (VWR, PA, USA) were coated in fibronectin (1 µg/ml, Sigma-Aldrich) for 10 min at 37 °C. Wells were then washed twice before the addition of the appropriate cell suspension. Cells were typically seeded at a concentration of 0.5—1 × 10^6/mL. […]
A laser scanning confocal imaging system (LSM510; Carl Zeiss, Jena, Germany), incorporating an upright Axioskop FS2 microscope (× 63 objective) was used for image acquisition. […] Fluorescein based dyes were excited with a dedicated 488 nm laser line, with emitted light detected at 500–530 nm. Syto 82 nuclear, calcein cytoplasmic dyes and CellMask Orange plasma membrane stain (all Invitrogen, Thermoscientific) were excited with a dedicated 543 nm line, with emitted light detected at 560–600 nm. Syto 60 (Invitrogen, Thermoscientific) stain was excited with a dedicated 633 nm line, with emitted light detected at 650–680 nm. PKH labelled bacteria were excited with a dedicated 633 nm line with emitted light detected at 650–705 nm. […]

[6] = Change in fluorescence with pH (plate reader); format: physicochemical; settings: carboxyfluorescein 15 µM, freshly made pH buffer; n = 1, in triplicate

c1ccc2c(c1)[I+]c1ccccc1-2 [DPI, Diphenyleneiodonium]
effect of inhibitor on intracellular NAP fluorescent signal (flow cytometry) [1]: reduced the overall mean fluorescent intensity

O.O=C(N/N=C/c1ccc(O)c(O)c1)c1cc2ccccc2cc1O [Dynasore Hydate, Dynasore Hydrate]
effect of inhibitor on intracellular NAP fluorescent signal (flow cytometry) [1]: abrogated

CCCC[C@H](NC(=O)[C@@H](NC(=O)[C@H](CCC(=O)O)NC(=O)[C@H](CCC(=O)O)NC(=O)COCCOCCNC(=O)c1ccc2c(c1)C(=O)OC21c2ccc(O)cc2Oc2cc(O)ccc21)[C@@H](C)CC)C(=O)N[C@@H](CCCNC(=N)N)C(=O)N[C@@H](CCCNC(=N)N)C(=O)NCCCOCC(COCCCNC(=O)[C@H](CCCNC(=N)N)NC(=O)[C@H](CCCNC(=N)N)NC(=O)[C@H](CCCC)NC(=O)[C@@H](NC(=O)[C@H](CCC(=O)O)NC(=O)[C@H](CCC(=O)O)NC(=O)COCCOCCNC(=O)c1ccc2c(c1)C(=O)OC21c2ccc(O)cc2Oc2cc(O)ccc21)[C@@H](C)CC)(COCCCNC(=O)[C@H](CCCNC(=N)N)NC(=O)[C@H](CCCNC(=N)N)NC(=O)[C@H](CCCC)NC(=O)[C@@H](NC(=O)[C@H](CCC(=O)O)NC(=O)[C@H](CCC(=O)O)NC(=O)COCCOCCNC(=O)c1ccc2c(c1)C(=O)OC21c2ccc(O)cc2Oc2cc(O)ccc21)[C@@H](C)CC)NC(N)=O (stereo partly drawn) [NAP] (I: {5FAM-AEEA}-EEI[Nle]RR / II: {5FAM-AEEA}-EEI[Nle]RR / III: {5FAM-AEEA}-EEI[Nle]RR; linker I:C-II:C-III:C via X1)
local or distant organ toxicity (rats; NAP 100 µg instilled via the trachea (approximately 700 times the human dose), necroscopy at 3 and 15 days): No local or distant organ toxicity was observed
haematological or other metabolic consequences (rats; NAP 100 µg instilled via the trachea, 3 and 15 days): no haematological or other metabolic consequences
neutrophil necrosis [2]: did not cause
increase in fluorescence compared to the resting state ([3]; NAP 5 µM in PBS with purified HNE, 37 °C, read every minute for 1 h, ex 488 nm / em 525 nm, three independent experiments): ~350%
mutagenicity [4]: no mutagenicity
red cell haemolysis (erythrocytes): did not cause

CC(C)(C)C(=O)Oc1ccc(S(=O)(=O)Nc2ccccc2C(=O)NCC(=O)O)cc1 [Sivelestat]
effect of inhibitor on cleavage of NAP by HNE ([3]; Sivelestat 100 µM, NAP 5 µM, 100 nM HNE): completely abrogated
effect of inhibitor on intracellular NAP fluorescent signal (flow cytometry) [1]: abrogated
effect of inhibitor on intracellular NAP fluorescent signal (confocal) [5]: abrogated

carboxyfluorescein
change in fluorescence with pH [6]: expected increase in fluorescence as H^+ concentration falls
